This note sets out measurements from article PMC4457528, “Identification of Novel Small Molecule Inhibitors of Oncogenic RET Kinase” (PLoS ONE, 2015).

Read-outs that look alike come from different tables or passages of the source. Bounds are passed on as bounds.

Common to all, as to assay: KinomeScan kinase panel, single concentration 10 µM
Holding throughout (format): binding

Experiment [1] concerns the target T1, KinomeScan kinase panel (Homo sapiens, UniProt Q8N568).
T1 construct: purchased DiscoveRx (KinomeScan)
Particulars: DCAMKL2, 10 µM; read-out: score (%).

In experiment [2] the target is T2, KinomeScan kinase panel (Homo sapiens, UniProt P37173).
T2 construct: purchased DiscoveRx (KinomeScan)
T2 sequence (P37173 23-567): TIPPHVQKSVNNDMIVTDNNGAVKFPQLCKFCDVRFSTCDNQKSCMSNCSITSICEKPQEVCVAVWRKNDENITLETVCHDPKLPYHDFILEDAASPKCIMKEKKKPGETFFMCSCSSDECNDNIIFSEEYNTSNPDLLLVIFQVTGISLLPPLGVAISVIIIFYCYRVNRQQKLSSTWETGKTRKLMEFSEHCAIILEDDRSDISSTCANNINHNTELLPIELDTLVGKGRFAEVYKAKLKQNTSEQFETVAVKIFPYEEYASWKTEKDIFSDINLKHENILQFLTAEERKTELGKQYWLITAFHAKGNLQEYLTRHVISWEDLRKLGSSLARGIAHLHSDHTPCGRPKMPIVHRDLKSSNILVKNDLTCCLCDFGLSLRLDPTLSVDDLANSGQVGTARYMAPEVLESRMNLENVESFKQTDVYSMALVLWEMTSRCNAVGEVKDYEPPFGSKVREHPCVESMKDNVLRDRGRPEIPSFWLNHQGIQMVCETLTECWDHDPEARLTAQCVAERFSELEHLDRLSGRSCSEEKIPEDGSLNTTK
Particulars: read-out: score (%).

In experiment [3] the target is T3, KinomeScan kinase panel (Homo sapiens, UniProt Q12852).
T3 construct: purchased DiscoveRx (KinomeScan)
T3 sequence (Q12852 1-859): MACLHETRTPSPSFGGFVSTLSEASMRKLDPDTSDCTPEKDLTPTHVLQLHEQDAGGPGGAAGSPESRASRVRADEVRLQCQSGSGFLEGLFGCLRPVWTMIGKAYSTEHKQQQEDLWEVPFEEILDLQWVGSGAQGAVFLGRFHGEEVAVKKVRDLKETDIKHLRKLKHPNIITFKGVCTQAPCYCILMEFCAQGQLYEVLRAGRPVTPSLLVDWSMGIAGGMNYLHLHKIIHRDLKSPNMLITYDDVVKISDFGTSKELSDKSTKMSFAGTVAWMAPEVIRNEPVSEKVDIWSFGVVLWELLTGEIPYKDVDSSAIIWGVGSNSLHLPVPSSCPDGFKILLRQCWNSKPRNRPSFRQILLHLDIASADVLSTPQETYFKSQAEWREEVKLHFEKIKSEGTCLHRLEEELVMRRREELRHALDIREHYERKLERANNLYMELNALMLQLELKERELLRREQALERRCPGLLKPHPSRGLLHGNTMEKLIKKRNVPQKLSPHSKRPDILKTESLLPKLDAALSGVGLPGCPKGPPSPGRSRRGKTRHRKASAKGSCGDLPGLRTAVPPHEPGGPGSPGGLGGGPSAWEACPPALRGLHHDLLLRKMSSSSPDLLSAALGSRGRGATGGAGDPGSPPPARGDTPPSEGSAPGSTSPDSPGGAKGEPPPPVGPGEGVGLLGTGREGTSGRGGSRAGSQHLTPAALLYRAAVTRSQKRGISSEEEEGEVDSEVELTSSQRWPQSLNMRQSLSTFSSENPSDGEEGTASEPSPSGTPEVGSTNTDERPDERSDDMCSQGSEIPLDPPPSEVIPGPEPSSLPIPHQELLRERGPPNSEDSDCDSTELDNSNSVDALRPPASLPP
Particulars: DLK, 10 µM.

Experiment [4] deals with T4, KinomeScan kinase panel (Homo sapiens, UniProt Q9UK32).
T4 construct: purchased DiscoveRx (KinomeScan)
T4 sequence (Q9UK32 whole entry): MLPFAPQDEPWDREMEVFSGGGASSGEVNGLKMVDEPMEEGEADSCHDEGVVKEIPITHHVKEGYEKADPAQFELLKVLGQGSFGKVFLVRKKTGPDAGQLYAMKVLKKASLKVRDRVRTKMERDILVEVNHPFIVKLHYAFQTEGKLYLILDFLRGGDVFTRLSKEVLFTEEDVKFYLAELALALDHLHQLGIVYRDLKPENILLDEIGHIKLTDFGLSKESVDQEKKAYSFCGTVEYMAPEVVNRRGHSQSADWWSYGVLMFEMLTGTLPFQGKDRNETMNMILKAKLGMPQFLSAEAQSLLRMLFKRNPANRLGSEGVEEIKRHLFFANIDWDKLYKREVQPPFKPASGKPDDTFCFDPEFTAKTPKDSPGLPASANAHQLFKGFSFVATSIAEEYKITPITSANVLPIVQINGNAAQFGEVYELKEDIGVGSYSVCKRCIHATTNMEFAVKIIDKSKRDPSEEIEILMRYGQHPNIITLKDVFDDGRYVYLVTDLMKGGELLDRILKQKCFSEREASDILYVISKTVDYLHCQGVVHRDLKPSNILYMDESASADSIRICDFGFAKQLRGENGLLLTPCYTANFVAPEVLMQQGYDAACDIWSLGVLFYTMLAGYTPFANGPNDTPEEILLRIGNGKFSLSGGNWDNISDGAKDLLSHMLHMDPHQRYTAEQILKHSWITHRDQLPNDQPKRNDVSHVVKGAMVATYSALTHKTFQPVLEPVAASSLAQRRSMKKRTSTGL
Particulars: 10 µM.

In experiment [5] the target is T5, KinomeScan kinase panel (Homo sapiens, UniProt Q96D53).
T5 construct: purchased DiscoveRx (KinomeScan)
T5 sequence (Q96D53 1-544): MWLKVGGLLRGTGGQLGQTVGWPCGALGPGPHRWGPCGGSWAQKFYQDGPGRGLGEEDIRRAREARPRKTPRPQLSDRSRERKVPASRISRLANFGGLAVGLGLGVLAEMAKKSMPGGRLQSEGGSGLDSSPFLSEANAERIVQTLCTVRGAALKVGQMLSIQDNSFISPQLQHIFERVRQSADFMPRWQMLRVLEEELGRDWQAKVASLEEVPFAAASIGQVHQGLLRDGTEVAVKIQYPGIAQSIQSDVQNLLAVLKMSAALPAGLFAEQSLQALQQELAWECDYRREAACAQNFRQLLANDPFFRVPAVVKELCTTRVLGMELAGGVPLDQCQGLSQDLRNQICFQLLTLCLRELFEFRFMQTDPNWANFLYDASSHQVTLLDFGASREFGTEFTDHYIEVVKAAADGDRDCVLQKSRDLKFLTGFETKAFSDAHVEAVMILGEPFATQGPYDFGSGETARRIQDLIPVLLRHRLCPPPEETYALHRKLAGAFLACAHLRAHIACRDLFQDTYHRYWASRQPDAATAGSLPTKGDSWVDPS
Particulars: ADCK4, 10 µM; read-out: score (%).

Experiment [6] deals with T6, KinomeScan kinase panel (Homo sapiens, UniProt P57078).
T6 construct: purchased DiscoveRx (KinomeScan)
T6 sequence (P57078 1-832): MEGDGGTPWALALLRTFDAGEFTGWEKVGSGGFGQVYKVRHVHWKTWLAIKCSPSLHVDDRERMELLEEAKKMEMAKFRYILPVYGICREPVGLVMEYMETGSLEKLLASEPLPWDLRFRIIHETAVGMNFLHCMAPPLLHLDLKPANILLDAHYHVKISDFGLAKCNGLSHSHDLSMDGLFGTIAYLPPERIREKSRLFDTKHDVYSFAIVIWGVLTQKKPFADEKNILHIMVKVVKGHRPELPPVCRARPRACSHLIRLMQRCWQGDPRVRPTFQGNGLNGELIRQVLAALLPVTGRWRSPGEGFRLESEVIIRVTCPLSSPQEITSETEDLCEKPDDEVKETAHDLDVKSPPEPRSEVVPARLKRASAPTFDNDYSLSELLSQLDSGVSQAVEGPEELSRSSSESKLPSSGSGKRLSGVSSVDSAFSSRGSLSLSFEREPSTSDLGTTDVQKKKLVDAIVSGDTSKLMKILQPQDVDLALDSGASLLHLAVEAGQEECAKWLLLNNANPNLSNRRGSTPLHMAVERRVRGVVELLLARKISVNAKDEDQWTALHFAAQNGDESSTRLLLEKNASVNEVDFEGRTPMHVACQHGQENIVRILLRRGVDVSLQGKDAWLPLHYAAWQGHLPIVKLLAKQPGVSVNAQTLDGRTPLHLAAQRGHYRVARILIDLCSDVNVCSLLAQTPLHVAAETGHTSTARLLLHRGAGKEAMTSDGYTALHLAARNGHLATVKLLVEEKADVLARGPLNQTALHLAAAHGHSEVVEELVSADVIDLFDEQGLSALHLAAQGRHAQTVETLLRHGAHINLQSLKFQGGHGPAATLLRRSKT
Particulars: read-out: score (%).

T1 sequence (Q8N568 whole entry): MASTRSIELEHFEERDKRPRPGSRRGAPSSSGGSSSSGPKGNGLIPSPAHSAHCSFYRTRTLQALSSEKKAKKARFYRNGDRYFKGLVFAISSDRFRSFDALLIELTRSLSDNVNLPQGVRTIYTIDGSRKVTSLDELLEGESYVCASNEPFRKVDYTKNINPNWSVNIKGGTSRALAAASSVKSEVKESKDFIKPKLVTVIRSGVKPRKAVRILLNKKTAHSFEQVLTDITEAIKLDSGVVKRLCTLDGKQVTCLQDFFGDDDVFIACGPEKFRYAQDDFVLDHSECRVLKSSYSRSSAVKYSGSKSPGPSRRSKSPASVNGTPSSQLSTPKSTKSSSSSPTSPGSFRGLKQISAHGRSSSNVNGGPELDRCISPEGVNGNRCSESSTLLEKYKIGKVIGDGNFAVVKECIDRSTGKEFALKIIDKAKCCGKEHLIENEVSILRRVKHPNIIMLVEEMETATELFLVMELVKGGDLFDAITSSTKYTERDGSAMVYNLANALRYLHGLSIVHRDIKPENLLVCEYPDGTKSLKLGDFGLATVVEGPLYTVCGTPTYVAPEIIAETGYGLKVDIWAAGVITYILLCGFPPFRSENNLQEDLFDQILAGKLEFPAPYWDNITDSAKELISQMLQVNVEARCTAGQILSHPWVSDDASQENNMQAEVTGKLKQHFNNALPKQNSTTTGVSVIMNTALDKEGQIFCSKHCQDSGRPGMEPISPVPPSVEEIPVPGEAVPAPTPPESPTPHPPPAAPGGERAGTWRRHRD

With `CCN1CCN(Cc2ccc(NC(=O)c3ccc(C)c(NC(=O)c4cncc(-c5cccs5)c4)c3)cc2C(F)(F)F)CC1` [ALW-II-41-27], the remaining binding at 10 µM in experiment [1] was over 30%; in experiment [2] (kinase TGFBR2, 10 µM) it was 4.6%; in experiment [5] it was over 30%; in experiment [6] (RIPK4, 10 µM), over 30%. Moreover, the figures for the “score (%)” value in experiment [3], in experiment [4] (kinase RPS6KA6(Kin.Dom.1-N-terminal)) and in experiment [4] (kinase RPS6KA6(Kin.Dom.2-C-terminal)) were 28%, “nb (Hits values higher than 30% were considered negative (no binding: nb))” and “nb (Hits values higher than 30% were considered negative (no binding: nb))”, respectively.

Take `CCN1CCN(Cc2ccc(NC(=O)c3ccc(C)c(/C=C/c4cnc5[nH]ccc5c4Cl)c3)cc2C(F)(F)F)CC1` [HG-6-63-01, (E)-3-(2-(4-chloro-1H-pyrrolo[2,3-b]pyridin-5-yl)vinyl)-N-(4-((4-ethylpiperazin-1-yl)methyl)-3-(trifluoromethyl)phenyl)-4-methylbenzamide]: the remaining binding at 10 µM in experiment [1] was over 30%; in experiment [2] (TGFBR2, 10 µM) it was 2.8%; in experiment [5] it was over 30%; in experiment [6] (RIPK4, 10 µM), over 30%. In addition, the “score (%)” value is given as 5.5% in experiment [3], “nb (Hits values higher than 30% were considered negative (no binding: nb))” in experiment [4] (RPS6KA6(Kin.Dom.1)) and “nb (Hits values higher than 30% were considered negative (no binding: nb))” in experiment [4] (RPS6KA6(Kin.Dom.2)).

As to `CCN1CCN(Cc2ccc(NC(=O)c3ccc(C)c(C#Cc4cccnc4)c3)cc2C(F)(F)F)CC1` [XMD15-44], the remaining binding at 10 µM was over 30% in experiment [1]; 1.3% in experiment [2] (kinase TGFBR2, 10 µM); over 30% in experiment [5]; 48% in experiment [6] (kinase RIPK4, 10 µM). Further, the “score (%)” value in experiment [3] is reported as 9.8%; in experiment [4] (kinase RSK4(Kin.Dom.1-N-terminal)) it was 47%; in experiment [4] (kinase RSK4(Kin.Dom.2-C-terminal)) it was 6.8%.
